Key:
[1] = molecular target: T1, unphosphorylated VEGF-R2Δ50 (FLVK) (Homo sapiens, UniProt P35968, DEL940-989/E990V); assay: VEGF-R2 coupled spectrophotometric assay, unphosphorylated VEGF-R2Δ50 (FLVK); format: biochemical; conditions: unphosphorylated VEGF-R2Δ50; for inhibition at 0.05 µM: 50 nM compound, read-out: FLVK (% inh @ 50 nM)
T1 construct: VEGF-R2Δ50 contains residues 806–939 and 990–1171; made in house; host or cells: baculovirus/insect cell system
How it was run: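 Ki obtained by Morrison-equation fitting of activity at varied compound levels; reaction started with 5–40 nM enzyme. Non-autophosphorylated kinase construct (insect cell-expressed) with 3 mM ATP, 20 mM poly(E4Y1), 60 mM MgCl2 plus 2 mM MnCl2, pH 7.5 HEPES; NADH loss at 340 nm via PK/LDH coupling.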

[2] = test system: human umbilical vein endothelial cells (HUVEC); assay: HUVEC+VEGF proliferation assay; format: cell-based; conditions: Homo sapiens, HUVEC; VEGF 6 ng/mL, 72 h, MTT
How it was run: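 Exponentially growing passage 3–4 HUVEC were starved 24 h in F12K + 1% FBS, given compound (0.1% final DMSO) 1 h before 6 ng/mL final VEGF, then cultured 72 h. Proliferation was read as MTT dye reduction (4 h exposure), absorbance at 595 nm.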

[3] = molecular target: T2, PDGFRβ (Homo sapiens, UniProt P09619); assay: PAE-PDGFRβ phosphorylation in PAE-PDGFRB cells assay; format: cell-based; conditions: PAE cells overexpressing human PDGFRβ, PDGF-BB stimulated; read-out: PAE PDGFR autophos IC50 (nM) AVG
T2 construct: expressed in transfected cells; host or cells: porcine aorta endothelial (PAE)-PDGFRβ cells
T2 sequence (P09619 33-1106): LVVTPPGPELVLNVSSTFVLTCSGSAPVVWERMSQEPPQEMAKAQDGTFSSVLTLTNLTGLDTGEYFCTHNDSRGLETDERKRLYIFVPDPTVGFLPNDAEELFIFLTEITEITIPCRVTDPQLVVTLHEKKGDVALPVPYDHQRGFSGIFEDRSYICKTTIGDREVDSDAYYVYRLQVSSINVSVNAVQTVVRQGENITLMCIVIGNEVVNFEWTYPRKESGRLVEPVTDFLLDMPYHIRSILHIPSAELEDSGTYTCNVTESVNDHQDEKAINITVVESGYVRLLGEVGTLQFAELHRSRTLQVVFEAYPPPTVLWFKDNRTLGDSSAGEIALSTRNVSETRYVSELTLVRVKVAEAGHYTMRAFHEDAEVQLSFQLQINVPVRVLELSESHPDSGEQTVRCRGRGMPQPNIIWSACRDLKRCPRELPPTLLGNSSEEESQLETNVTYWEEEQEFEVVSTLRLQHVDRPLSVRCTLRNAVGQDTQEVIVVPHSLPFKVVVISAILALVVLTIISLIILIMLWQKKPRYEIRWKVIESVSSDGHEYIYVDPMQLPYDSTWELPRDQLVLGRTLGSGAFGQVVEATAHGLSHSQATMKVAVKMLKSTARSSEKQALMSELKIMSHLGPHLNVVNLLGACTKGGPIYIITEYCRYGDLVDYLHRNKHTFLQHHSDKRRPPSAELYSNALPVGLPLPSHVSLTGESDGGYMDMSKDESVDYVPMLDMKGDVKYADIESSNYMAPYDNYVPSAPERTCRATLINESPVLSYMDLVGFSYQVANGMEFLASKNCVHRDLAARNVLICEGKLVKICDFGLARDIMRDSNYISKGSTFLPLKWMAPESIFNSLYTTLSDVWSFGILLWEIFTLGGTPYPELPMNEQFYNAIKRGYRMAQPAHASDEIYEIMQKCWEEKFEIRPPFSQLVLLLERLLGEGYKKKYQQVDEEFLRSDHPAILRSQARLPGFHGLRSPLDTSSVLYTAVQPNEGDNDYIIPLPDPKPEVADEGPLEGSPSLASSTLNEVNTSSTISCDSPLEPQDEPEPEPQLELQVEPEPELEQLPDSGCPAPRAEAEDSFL
How it was run: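 Inhibition of PDGF-BB-induced (1 μg/mL, 8 min, with 2 mM vanadate) PDGFRβ autophosphorylation in porcine aortic endothelial cells expressing the human receptor. Cells were starved 16 h and pretreated with compound 1 h at 37 °C. Lysates were captured with anti-PDGFRβ and probed with HRP-PY20 at 450 nm; four-parameter IC50.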

[4] = test system: Huvec; assay: bFGF Huvec proliferation; format: cell-based, human; conditions: Homo sapiens, HUVEC

T1 sequence (P35968 with tags, fused parts or gaps DEL940-989/E990V limits assumed): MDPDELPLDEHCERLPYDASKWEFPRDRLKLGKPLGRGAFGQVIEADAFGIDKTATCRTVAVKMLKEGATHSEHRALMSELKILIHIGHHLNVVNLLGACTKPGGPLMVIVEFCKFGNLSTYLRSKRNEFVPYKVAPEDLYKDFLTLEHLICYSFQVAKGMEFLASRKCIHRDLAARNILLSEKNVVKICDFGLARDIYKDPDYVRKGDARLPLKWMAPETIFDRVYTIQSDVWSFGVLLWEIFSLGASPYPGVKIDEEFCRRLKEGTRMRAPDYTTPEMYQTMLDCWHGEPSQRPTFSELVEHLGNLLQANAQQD

Row | Structure (SMILES) | inhibition at 0.05 µM [1] | Ki [1] | IC50 [2] | IC50 [3] | IC50 [4]
1 | Cc1c(C(=O)Nc2ccccn2)c2ccc(Oc3ccnc4cc(-c5nccs5)sc34)cc2n1C [Example 70, 1,2-Dimethyl-6-(2-thiazol-2-yl-thieno[3,2-b]pyridin-7-yloxy)-1H-indole-3-carboxylic acid pyridin-2-ylamide] | 95% | 0.43 nM | 0.537 nM | 47.1 nM | 3980 nM
2 | CNC(=O)c1c(Cl)n(C)c2cc(Oc3ccnc4cc(-c5nc(C(C)(C)O)cs5)sc34)ccc12 [Example 75, 2-Chloro-6-{2-[4-(1-hydroxy-1-methyl-ethyl)thiazol-2-yl]-thieno[3,2-b]pyridin-7-yloxy}-1-methyl-1H-indole-3-carboxyllc acid methylamide] | 84% | 2.62 nM | 1.4 nM | 16.6 nM | 10000 nM
3 | CNC(=O)c1c(C)oc2cc(Oc3ccnc4cc(C(=O)N5CCC5)sc34)ccc12 [Example 77, 6[2-(Azetidine-1-carbonyl)-thieno[3,2-b]pyridin-7-yloxy]-2-methyl-benzofuran-3-carboxylic acid methylamide] | 99% | 0.2 nM | 0.2 nM | 7.4 nM | 8 nM
4 | CNC(=O)c1c(C)oc2cc(Oc3ccnc4cc(C(=O)N5CCC[C@H]5COC)sc34)ccc12 [Example 79, 6-(2-[(S)-2-(methoxymethyl)pyrrolidine-1-carbonyl]thieno[3,2-b]pyridin-7-yloxy)-2-methyl-benzofuran-3-carboxylic acid methyl amide] | 90% | 0.276 nM | 0.223 nM | 15.5 nM | 130 nM
5 | CNC(=O)c1c(C)oc2cc(Oc3ccnc4cc(C(=O)N5CCC[C@H]5CO)sc34)ccc12 [Example 80, 6-(2-[(S)-2-(hydroxymethyl)pyrrolidine-1-carbonyl]thieno[3,2-b]pyridin-7-yloxy)-2-methyl-benzofuran-3-carboxylic acid methylamide] | 95% | 0.438 nM | 0.239 nM | 31 nM | 60 nM
6 | CNC(=O)c1c(C)oc2cc(Oc3ccnc4cc(-c5nc(CO)cs5)sc34)ccc12 [Example 81, 6-[2-(4-Hydroxymethyl-thiazol-2-yl)-thieno[3,2-b]pyridin-7-yloxy]-2-methyl-benzofuran-3-carboxylic acid methylamide] | 100% | 0.2 nM | 0.09 nM | 7 nM | 26 nM
7 | COC[C@@H]1CCCN1C(=O)c1cc2nccc(Oc3ccc4c(C(=O)NC(C)C)c(C)oc4c3)c2s1 [Example 82, 6-(2-[(S)-2-(methoxymethyl)pyrrolidine-1-carbonyl]thieno[3,2-b]pyridin-7-yloxy)-2-methyl-benzofuran-3-carboxylic acid isopropylamide] | 89% | 0.884 nM | 2.28 nM | 53.1 nM | 2060 nM
8 | Cc1oc2cc(Oc3ccnc4cc(-c5nccn5C)sc34)ccc2c1C(=O)NC(C)C [Example 83, 2-Methyl-6-[2-(1-methyl-1H-imidazol-2-yl)-thieno[3,2-b]pyridin-7-yloxy]-benzofuran-3-carboxylic acid isopropyl amide] | 98% | 0.2 nM | 0.77 nM | 28.8 nM | 142 nM
9 | Cc1oc2cc(Oc3ccnc4cc(-c5nccn5C)sc34)ccc2c1C(=O)NCC(C)C [Example 84, 2-Methyl-6-[2-(1-methyl-1H-imidazol-2-yl)-thieno[3,2-b]pyridin-7-yloxy]-benzofuran-3-carboxylic acid isobutyl amide] | 94% | 0.58 nM | 0.322 nM | 12.4 nM | 429 nM
10 | CO[C@@H]1CCN(C(=O)c2cc3nccc(Oc4ccc5c(C(=O)NCC(C)C)c(C)oc5c4)c3s2)C1 [Example 87, 6-[2-(3-Methoxy-pyrrolidine-1-carbonyl)-thieno[3,2-b]pyridin-7-yloxy]-2-methyl-benzofuran-3-carboxylic acid isobutyl amide] | 96% | 0.615 nM | 1.25 nM | 17.8 nM | 6040 nM
11 | Cc1oc2cc(Oc3ccnc4cc(C(=O)N5CC[C@@H](O)C5)sc34)ccc2c1C(=O)NCC(C)C [Example 88, 2-Methyl-6[2-(3-hydroxy-pyrrolidine-1-carbonyl)-thieno[3,2-b]pyridin-7-yloxy]-benzofuran-3-carboxylic acid isobutyl amide] | 94% | 0.574 nM | 0.46 nM | 15.1 nM | 363 nM
12 | CO[C@@H]1CCN(C(=O)c2cc3nccc(Oc4ccc5c(C(=O)NCCN6CCOCC6)c(C)oc5c4)c3s2)C1 [Example 90, 6-[2-(3-Methoxy-pyrrolidine-1-carbonyl)-thieno[3,2-b]pyridin-7-yloxy]-2-methyl-benzofuran-3-carboxylic acid (2-morpholin-4-yl-ethyl)-amide] | 93% | 0.739 nM | 2.14 nM | 33 nM | 745 nM
13 | CO[C@@H]1CCN(C(=O)c2cc3nccc(Oc4ccc5c(C(=O)NCC6CC6)c(C)oc5c4)c3s2)C1 [Example 91, 6-[2-(q-Methoxy-pyrrolidine-1-carbonyl)-thieno[3,2-b]pyridin-7-yloxy]-2-methyl-benzofuran-3-carboxylic acid cyclopropylmethyl-amide] | 94% | 0.356 nM | 0.168 nM | 16.5 nM | 250 nM
14 | CCCNC(=O)c1c(C)oc2cc(Oc3ccnc4cc(C(=O)N5CC[C@@H](OC)C5)sc34)ccc12 [Example 92, 6-[2-(3-Methoxy-pyrrolidine-1-carbonyl)-thieno[3,2-b]pyridin-7-yloxy]-2-methyl-benzofuran-3-carboxylic acid propyl amide] | 100% | 0.2 nM | 0.18 nM | 4.4 nM | 13 nM
15 | CCc1oc2cc(Oc3ccnc4cc(-c5nccn5C)sc34)ccc2c1C(=O)NC [Example 94, 2-Ethyl-6[2-(1-methyl-1H-imidazol-2-yl)-thieno[3,2-b]pyridin-7-yloxy]-benzofuran-3-carboxylic acid methylamide] | 81% | 1.45 nM | 0.7 nM | 112 nM | 251 nM
16 | CCc1oc2cc(Oc3ccnc4cc(C(=O)N5CC[C@@H](O)C5)sc34)ccc2c1C(=O)NC [Example 95, 2-Ethyl-6-[2-(3-hydroxy-pyrrolidine-1-carbonyl)-thieno[3,2-b]pyridin-7-yloxy]-benzofuran-3-carboxylic acid methylamide] | 89% | 0.848 nM | 10 nM | 235 nM | 96 nM
17 | CCc1oc2cc(Oc3ccnc4cc(C(=O)N5CCC[C@H]5CO)sc34)ccc2c1C(=O)NC [Example 97, 2-ethyl-6(2-[(S)-2-(hydroxymethyl)pyrrolidine-1-carbonyl]thieno[3,2-b]pyridin-7-yloxy)-benzofuran-3-carboxylic acid methylamide] | 70% | 4.84 nM | 10 nM | 293 nM | 223 nM
18 | Cc1oc2cc(Oc3ccnc4ccsc34)ccc2c1C(=O)Nc1ccc(N2CCOCC2)nc1 [Example 102, 2-Methyl-6-(thieno[3,2-b]pyridin-7-yloxy)benzofuran-3-carboxylic acid (6-morpholin-4-yl-pyridin-3-yl)amide] | 96% | 0.91 nM | 0.186 nM | 49 nM | 1720 nM
19 | Cc1oc2cc(Oc3ccnc4ccsc34)ccc2c1C(=O)NCCc1c[nH]c2cc(F)ccc12 [Example 104, 2-Methyl-6-(thieno[3,2-b]pyridin-7-yloxy)-benzofuran-3-carboxylic acid [2-(6-fluoro-1H-indol-3-yl)ethyl]-amide] | 100% |  | 8.4 nM | 164 nM | 227 nM
20 | Cc1sc2cc(Oc3ccnc4cc(-c5nccn5C)sc34)ccc2c1C(=O)NC1CC1 [Example 117, 2-Methyl-6-{[2-(1-methyl-1H-imidazol-2-yl)thieno[3,2-b]pyridin-7-yl]oxy}benzo[b]thiophene-3-carboxylic acid cyclopropylamide] | 87% | 0.2 nM | 0.07 nM | 189 nM | 86 nM
21 | Cc1sc2cc(Oc3ccnc4cc(-c5nccn5C)sc34)ccc2c1C(=O)NCC1CC1 [Example 119, 2-Methyl-6-{[2-(1-methyl-1-imidazol-2-yl)thieno[3,2-b]pyridin-7-yl]oxy}benzo[b]thiophene-3-carboxylic acid (cyclopropylmethyl)amide] | 95% | 0.375 nM | 1.46 nM | 90.6 nM | 1830 nM
